Results on eight compounds are retold here after PubChem BioAssay (NCI).

What all share (experiment): DTP human tumour cell line panel, 48 h
Assay [1] has as its system HT29 colon.
Assay [2] concerns SK-OV-3 ovarian.
Assay [3] relates to ACHN renal.
The test system of assay [4] is HCT-15 colon.
Assay [5] relates to HL-60(TB) leukemia.
Assay [6] concerns MDA-MB-435.
The test system of assay [7] is SK-MEL-5 melanoma.
Assay [8] deals with EKVX NSCLC.
The subject of assay [9] is A498 renal.
The subject of assay [10] is HS 578T breast.

Molecules are shown by their SMILES. Where “and” joins values, the source holds several entries; their conditions need not be identical. Equal entries are not always repeated.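 Growth conditions: 96-well plates. Treatment: test compound, 48 hours, 5 concentrations. Analysis: linear interpolation between bracketing concentrations; unreached endpoints set to highest concentration. At the GI50, growth is halved. TGI denotes the concentration required for complete inhibition of growth.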

As to `N#CCNC(=O)c1ccc(-c2ccnc(Nc3ccc(N4CCOCC4)cc3)n2)cc1`, the GI50 was 5.71 µM and 5.38 µM in assay [1]; 4.04 µM and 3.83 µM in [2]; 1.35 µM and 0.531 µM in [3]; 3.1 µM and 2.3 µM in assay [4]; 4.79 µM and 3.14 µM in [5]; 4.75 µM and 2.82 µM in [6]. The GI50 in assay [7] is 4.61 µM; in assay [8], over 10 µM; in assay [9], 2.35 µM and 1.91 µM; in assay [10], 0.506 µM and 0.42 µM. Further, the TGI was over 100 µM in assay [1]; > 10 µM and 24.7 µM in [2]; over 37.1 µM in assay [3]; over 100 µM in [4]; over 100 µM in assay [5]; over 100 µM in assay [6]. Further, the TGI in assay [7] was 38.7 µM; in [8], over 10 µM; in assay [9] it was 8.73 µM and 7.66 µM; in [10] it was 4.86 µM and 12.9 µM.

Regarding `COc1ccc2c(c1)C(=O)c1c-2c(=O)n(CCCN(C)C)c2cc(OC)c(OC)cc12`, the GI50 in assay [1] was 3.69 µM; in assay [2], 5.15 µM; in [3], 2.76 µM; in [4], 12.6 µM; in assay [5], 10.4 µM; in [6], 11.3 µM. Further, the GI50 was 86.1 µM in assay [7], 16.5 µM in assay [8], 15 µM in assay [9] and 16.2 µM in assay [10]. Also, the TGI in [1] was found to be 19.1 µM; in [2] it was 19.5 µM; in [3] it was 14.4 µM; in assay [4] it was 27.4 µM; in [5], 31.7 µM; in assay [6], 23.3 µM. Also, the TGI in [7] is over 100 µM; in [8], 30.7 µM; in assay [9], over 100 µM; in assay [10], 36.7 µM.

For `O=C(c1cc(Cc2n[nH]c(=O)c3ccccc23)ccc1F)N1CCN(C(=O)C2CC2)CC1`, the GI50 in assay [1] was over 100 µM; in [2], over 100 µM; in assay [3] it was 96.1 µM and 88.2 µM; in assay [4], over 100 µM; in [5], over 100 µM; in [6], 58 µM and 97.6 µM. Moreover, the GI50 in assay [7] is 27.6 µM and 29.1 µM; in assay [8], 18 µM and 77.7 µM; in assay [9] it was 19 µM and > 55.7 µM; in [10], 12.4 µM and > 100 µM. For the same compound, the TGI in [1], in [2], in [3], in assay [4], in assay [5] and in [6] was over 100 µM throughout. In addition, the TGI in [7], in assay [8], in assay [9] and in assay [10] was over 100 µM throughout.

In the case of `COc1c(CC=C(C)C)c(O)c(C(CC(C)C)c2c(O)c(CC=C(C)C)c(O)c(C(C)=O)c2O)c(O)c1C(C)=O` (stereo not drawn), the TGI amounted to 8.63 µM in assay [1]; 11.1 µM in assay [2]; 10.9 µM in assay [3]; 2.62 µM in assay [4]; 3.28 µM in assay [5]; 6.47 µM in assay [6]. Also, the TGI in assay [7] was found to be 5.04 µM; in assay [8], 11.4 µM; in [9], 1.24 µM; in assay [10], 4.63 µM.

As to `CCn1ccnc1C(=O)/C=C/c1ccc(CC(=O)Nc2ccc(F)cc2)cc1`, the GI50 in assay [1] was 5.64 µM; in assay [2], 6.97 µM; in assay [3], 3.95 µM; in [4], 1.93 µM; in assay [5], 3.18 µM; in [6], 4.58 µM. The GI50 in [7] is 5.74 µM; in [8], 3.59 µM; in [9], 3.73 µM; in [10] it was 5.36 µM. The total growth inhibition concentration (TGI) was over 16.7 µM in assay [1]; over 16.7 µM in [2]; 11.7 µM in [3]; 8.96 µM in [4]; 10.9 µM in assay [5]; over 16.7 µM in [6]. The total growth inhibition concentration (TGI) in [7] was over 16.7 µM; in [8] it was 12.2 µM; in assay [9], 15.5 µM; in assay [10] it was over 16.7 µM.

In the case of `O=[N+]([O-])c1cc(Cc2cc([N+](=O)[O-])c3cccnc3c2O)c(O)c2ncccc12`, the TGI in assay [1] is over 73.1 µM; in assay [2], 37.5 µM; in assay [3], 41.3 µM; in assay [4], 66.4 µM; in assay [5], 5.35 µM; in [6], 32.7 µM. Further, the concentration for total growth inhibition (TGI) in [7] is 24.5 µM; in assay [8] it was 61.9 µM; in [9] it was 31.8 µM; in assay [10], 52.1 µM.

Consider `O=c1[nH]c2ccccc2n1C1CCN(CCCC(c2ccc(F)cc2)c2ccc(F)cc2)CC1`, for which the GI50 in assay [1] is 1.12 µM; in [2], 1.56 µM; in assay [3], 1.66 µM and 10.9 µM; in assay [4] it was 1.77 µM; in [5], 1.82 µM; in assay [6], 1.54 µM and 4.49 µM. The GI50 was 1.42 µM and 2.13 µM in [7]; 1.66 µM and 8.47 µM in assay [8]; 1.12 µM and 8.77 µM in assay [9]; 1.83 µM and 7.71 µM in assay [10]. Besides, the TGI in assay [1] is 2.52 µM and 7.2 µM; in assay [2], 3.12 µM and 24.9 µM; in assay [3], 3.16 µM and 24.7 µM; in [4], 3.95 µM and 19.7 µM; in assay [5], 4.4 µM and 11.9 µM; in assay [6], 3.06 µM and 11.5 µM. In addition, the TGI is 2.74 µM and 4.8 µM in [7]; 4.54 µM and 22.7 µM in assay [8]; 2.36 µM and 22.7 µM in assay [9]; 4.47 µM and 24.8 µM in [10].

For `C/C(=N\NC(=S)N1CCN(c2ccccn2)CC1)c1ncccn1`, the GI50 in assay [1] is under 0.0263 µM; in assay [2] it was 0.0884 µM; in [3], 0.0871 µM; in assay [4], 0.013 µM; in assay [6] it was 0.414 µM; in [7] it was 0.269 µM. For the same compound, the GI50 was 0.0494 µM in assay [8] and 3.01 µM in assay [10]. In addition, the concentration for total growth inhibition (TGI) in assay [1] is 7.55 µM and 14.9 µM; in assay [2], 4.47 µM and 13 µM; in [3] it was 12.1 µM; in assay [4], 5.48 µM and 16.7 µM; in assay [5] it was 0.0274 µM and 0.103 µM; in [6], 11.9 µM. For the same compound, the total growth inhibition concentration (TGI) is 3.2 µM and 14.9 µM in assay [7]; 5.2 µM and 12.8 µM in assay [8]; 6.19 µM and 16.2 µM in [9]; 31.2 µM in assay [10].
